Our source for the IC50, inhibition and melting point values is US7342014B2, “Diamine derivatives” (Daiichi Pharmaceutical Co., Ltd., priority 2001, dated 2008).

Counter-ions that a name gives are not always drawn. Like-named read-outs stand apart in the source and are kept apart here.

The target in data set [1] is T1, human FXa (Homo sapiens, UniProt P00742).
T1 construct: purchased Enzyme Research Labolatories, Inc
Put plainly: Determination of human FXa-inhibiting effect (IC50 value). The class given is biochemical. From the text:
Determination of Human FXa-inhibiting Effect (IC50 Value)
As a control, Tris buffer was used in place of the test compound.

The target in data set [2] is T1, human FXa. Put plainly: Determination of anti-FXa activity in rat plasma after oral administration. The class given is in vivo. The following applies: rats, oral dose of 10 mg/kg, plasma collected 0.5, 1, 2 and 4 hours after administration, human FXa and S-2222; read-out: FXa-inhibiting activity (percent inhibition) in plasma. Here is the method:
Determination of Anti-FXa Activity in Rat Plasma After Oral Administration
(A) Administration and Blood Collection:
A drug solution (1 mg/ml) obtained by dissolving or suspending a test compound (10 mg) in 0.5% methyl cellulose (MC) was orally administered to rats (10 ml/kg). […] For rats of a control group, the same blood collection was conducted after a 0.5% MC solution was administered. Each blood sample was centrifuged at 1500×g for 10 minutes at 4° C. to separate plasma, and the plasma was preserved at −40° C. until it was used in the following determination of anti-FXa activity in plasma.
(B) Determination of FXa-inhibiting Activity in Plasma:
Tris buffer (100 mM Tris, 200 mM potassium chloride, 0.2% BSA, pH 7.4) (5456 μl), human FXa (2.5 U/ml, 44 μl) and water (550 μl) were mixed. The resultant human FXa solution was used in the following test.
The anti-FXa activity, i.e., percent inhibition (%) was calculated in accordance with the following equation: […]

Where [3] appears, read: human FXa, substrate S-2222, absorbance at 405 nm, room temperature, read-out: Human FXa-inhibiting effect (IC50).

T1 sequence (P00742 235-488 limits assumed): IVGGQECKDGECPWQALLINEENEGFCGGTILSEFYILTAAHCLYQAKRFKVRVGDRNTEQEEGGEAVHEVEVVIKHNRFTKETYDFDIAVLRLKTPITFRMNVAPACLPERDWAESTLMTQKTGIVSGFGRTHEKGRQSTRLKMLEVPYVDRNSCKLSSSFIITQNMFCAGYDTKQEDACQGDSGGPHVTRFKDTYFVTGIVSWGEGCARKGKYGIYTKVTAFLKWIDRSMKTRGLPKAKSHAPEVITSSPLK
T1 sequence (P00742 41-179 partner limits assumed): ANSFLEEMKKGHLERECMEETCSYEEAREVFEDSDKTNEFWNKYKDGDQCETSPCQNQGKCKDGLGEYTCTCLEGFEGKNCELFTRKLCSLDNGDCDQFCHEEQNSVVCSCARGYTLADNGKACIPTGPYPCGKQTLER

`CN1CCc2nc(C(=O)N[C@@H]3C[C@@H](C(=O)N(C)C)CC[C@@H]3NC(=O)C(=O)Nc3ccc(F)cc3)sc2C1` [Example 194, N^1-((1S,2R,4S)-4-[(Dimethylamino)carbonyl]-2-{[(5-methyl-4,5,6,7-tetrahydrothiazolo[5,4-c]pyridin-2-yl)carbonyl]amino}cyclohexyl)-N^2-(4-fluorophenyl)-ethanediamide hydrochloride]: the IC50 in data set [1] (setting [3]) came to 5 nM. For the same compound, in data set [2], the inhibition at 10 mg/kg was 62 to 96%. For `CN1CCc2nc(C(=O)N[C@@H]3C[C@@H](C(=O)N(C)C)CC[C@@H]3NC(=O)C(=O)Nc3ccc(Cl)cc3)sc2C1` [Example 191, N^1-(4-Chlorophenyl)-N^2-((1S,2R,4S)-4-[(dimethylamino)-carbonyl]-2-{[(5-methyl-4,5,6,7-tetrahydrothiazolo[5,4-c]-pyridin-2-yl)carbonyl]amino}cyclohexyl)ethanediamide hydrochloride], in that order: 1.2 nM and 62 to 96%.

Turning to `COCC(=O)N1CC[C@H](NC(=O)c2cc3cc(Cl)ccc3[nH]2)[C@H](NC(=O)c2nc3c(s2)CN(C)CC3)C1` (relative stereo) [Example 143, N-[(3R*,4S*)-4-{[(5-Chloroindol-2-yl)carbonyl]amino}-1-(2-methoxyacetyl)piperidin-3-yl]-5-methyl-4,5,6,7-tetrahydro-thiazolo[5,4-c]pyridine-2-carboxamide hydrochloride], the IC50 in data set [1] (setting [3]) amounted to 5.8 nM. In the case of `CN1CCc2nc(C(=O)N[C@@H]3CN(C(=O)NC(C)(C)C)CC[C@@H]3NC(=O)c3cc4cc(Cl)ccc4[nH]3)sc2C1.Cl` (relative stereo) [Example 164, N-((3R*,4S*)-1-[(tert-Butylamino)carbonyl]-4-{[(5-chloroindol-2-yl)carbonyl]amino}piperidin-3-yl)-5-methyl-4,5,6,7-tetrahydrothiazolo[5,4-c]pyridine-2-carboxamide hydrochloride], the melting point is 236 to 238 °C (dec.). Further, the IC50 in data set [1] (setting [3]) came to 4.8 nM. On to `CN1CCc2nc(C(=O)N[C@@H]3C[C@@H](C(=O)N(C)C)CC[C@@H]3NC(=O)C(=O)Nc3ccc(Br)cn3)sc2C1` [Example 204, N^1-(5-Bromopyridin-2-yl)-N^2-((1S,2R,4S)-4-[(dimethylamino)-carbonyl]-2-{[(5-methyl-4,5,6,7-tetrahydrothiazolo[5,4-c]-pyridin-2-yl)carbonyl]amino}cyclohexyl)ethanediamide hydrochloride], for which, in data set [1] (setting [3]), the IC50 came out at 1.5 nM. Also, the inhibition at 10 mg/kg in data set [2] is 62 to 96%. On to `CN1CCc2nc(C(=O)N[C@@H]3C[C@@H](C(=O)N(C)C)CC[C@@H]3NC(=S)C(=O)Nc3ccc(Cl)cc3)sc2C1` [Ex. 246, N-{(1R,2S,5S)-2-{[2-(4-Chloroanilino)-2-oxoethane-thioyl]amino}-5-[(dimethylamino)carbonyl]cyclohexyl}-5-methyl-4,5,6,7-tetrahydrothiazolo[5,4-c]pyridine-2-carboxamide], for which, in data set [1] (setting [3]), the IC50 was found to be 3.1 nM. Still for that read-out and setting: in the case of `CN1CCc2nc(C(=O)N[C@@H]3CN(C(=O)C4CC4)CC[C@@H]3NC(=O)c3cc4cc(Cl)ccc4[nH]3)sc2C1` (relative stereo) [Example 138, N-[(3R*,4S*)-4-{[(5-Chloroindol-2-yl)carbonyl]amino}-1-(cyclopropylcarbonyl)piperidin-3-yl]-5-methyl-4,5,6,7-tetrahydrothiazolo[5,4-c]pyridine-2-carboxamide hydrochloride] it was 4.4 nM; in that of `COC(=O)[C@@H]1CC[C@H](NC(=O)c2cc3cc(Cl)ccc3[nH]2)[C@H](NC(=O)c2nc3c(s2)CN(C)CC3)C1` [Example 54, Methyl (1R,3R,4S)-4-{[(5-chloroindol-2-yl)carbonyl]amino}-3-{[(5-methyl-4,5,6,7-tetrahydrothiazolo[5,4-c]pyridin-2-yl)carbonyl]amino}cyclohexanecarboxylate], 4.2 nM; in that of `CN1CCc2nc(C(=O)N[C@@H]3CN(S(=O)(=O)CC(=O)O)C[C@H]3NC(=O)c3cc4cc(Cl)ccc4[nH]3)sc2C1` [Example 101, 2-[((3R,4R)-3-{[(5-Chloroindol-2-yl)carbonyl]amino}-4-{[(5-methyl-4,5,6,7-tetrahydrothiazolo[5,4-c]pyridin-2-yl)carbonyl]amino}pyrrolidin-1-yl)sulfonyl]acetic acid], 26 nM. Same read-out and setting: the same measure for `CCOC(=O)N1CC[C@H](NC(=O)c2cc3cc(Cl)ccc3[nH]2)[C@H](NC(=O)c2nc3c(s2)CN(C)CC3)C1` (relative stereo) [Example 130, Ethyl (3R*,4S*)-4-{[(5-chloroindol-2-yl)carbonyl]amino}-3-{[(5-methyl-4,5,6,7-tetrahydrothiazolo[5,4-c]pyridin-2-yl)carbonyl]amino}piperidine-1-carboxylate hydrochloride]: 4.5 nM.

With `CN1CCc2nc(C(=O)N[C@H]3CCC[C@@H]3NC(=O)c3cc4cc(Cl)ccc4[nH]3)sc2C1` (relative stereo) [Example 3, N-((1R*,2R*)-2-{[(5-Chloroindol-2-yl)carbonyl]amino}-cyclopentyl)-5-methyl-4,5,6,7-tetrahydrothiazolo[5,4-c]-pyridine-2-carboxamide hydrochloride], half-maximal inhibition in data set [1] (IC50) required 86 nM. Consider `CN1CCc2nc(C(=O)N[C@@H]3CCCC[C@@H]3NC(=O)c3cc4cc(Br)ccc4[nH]3)sc2C1` (relative stereo) [Example 11, N-((1R*,2S*)-2-{[(5-Bromoindol-2-yl)carbonyl]amino}-cyclohexyl)-5-methyl-4,5,6,7-tetrahydrothiazolo[5,4-c]-pyridine-2-carboxamide hydrochloride], for which the IC50 in data set [1] (setting [3]) was 92 nM.
